Experimental data from ChEMBL document CHEMBL1150507, “New hydroxy-amido-anthraquinones as potential antineoplastic drugs” (1992).

Experiments:
HeLa = test: Compound was tested for tumor cell growth inhibition against HeLa cell line; type: functional; settings: Homo sapiens, read-out: ID50 (the source's name)
HL-60 = test: Compound was tested for tumor cell growth inhibition against HL 60 cell line; type: functional; settings: Homo sapiens, read-out: ID50 (the source's name)

Row | Compound | IC50 (HeLa) | IC50 (HL-60)
1 | O=C1c2c(O)ccc(O)c2C(=O)c2c(NCCNCCO)ccc(NCCNCCO)c21 [MITOXANTRONE] | 2770 nM | 90 nM
2 | CCN(CC)CC(=O)Nc1ccc(NC(=O)CN(CC)CC)c2c1C(=O)c1c(O)ccc(O)c1C2=O | > 38000 nM | 4900 nM
3 | CCN(CC)CCC(=O)Nc1ccc(O)c2c1C(=O)c1c(O)ccc(O)c1C2=O | 8050 nM | 110 nM
4 | CCN(CC)CC(=O)Nc1ccc(O)c2c1C(=O)c1c(O)ccc(O)c1C2=O | 26100 nM | 1640 nM
5 | CCN(CC)CCC(=O)Nc1ccc(NC(=O)CCN(CC)CC)c2c1C(=O)c1c(O)ccc(O)c1C2=O | 3140 nM | 100 nM
